Legend:
[1] = The drug is tested on Z-029 corresponding to rat gut metagenome with ENA study accession number: PRJEB37062 and ENA sample accession number: ERS12561828 for biotransformation under anaerobic condition. The drug concentrations were measured over 9 timepoints collected between 0 and 24 hours of incubation by liquid-chromatography-coupled mass spectrometry (LC–MS); details: 2 µM
[2] = The drug is tested on Z-024 corresponding to pig gut metagenome with ENA study accession number: PRJEB37062 and ENA sample accession number: ERS12561823 for biotransformation under anaerobic condition. The drug concentrations were measured over 9 timepoints collected between 0 and 24 hours of incubation by liquid-chromatography-coupled mass spectrometry (LC–MS); details: 2 µM
[3] = The drug is tested on Z-021 corresponding to metagenome with ENA study accession number: PRJEB37062 and ENA sample accession number: ERS12561820 for biotransformation under anaerobic condition. The drug concentrations were measured over 9 timepoints collected between 0 and 24 hours of incubation by liquid-chromatography-coupled mass spectrometry (LC–MS); details: 2 µM
[4] = The drug is tested on Z-020 corresponding to rabbit gut metagenome with ENA study accession number: PRJEB37062 and ENA sample accession number: ERS12561819 for biotransformation under anaerobic condition. The drug concentrations were measured over 9 timepoints collected between 0 and 24 hours of incubation by liquid-chromatography-coupled mass spectrometry (LC–MS); details: 2 µM
[5] = The drug is tested on Z-011 corresponding to mouse gut metagenome with ENA study accession number: PRJEB37062 and ENA sample accession number: ERS12561811 for biotransformation under anaerobic condition. The drug concentrations were measured over 9 timepoints collected between 0 and 24 hours of incubation by liquid-chromatography-coupled mass spectrometry (LC–MS); details: 2 µM
[6] = The drug is tested on Z-006 corresponding to mouse gut metagenome with ENA study accession number: PRJEB37062 and ENA sample accession number: ERS12561806 for biotransformation under anaerobic condition. The drug concentrations were measured over 9 timepoints collected between 0 and 24 hours of incubation by liquid-chromatography-coupled mass spectrometry (LC–MS); details: 2 µM
[7] = The drug is tested on Z-004 corresponding to metagenome with ENA study accession number: PRJEB37062 and ENA sample accession number: ERS12561804 for biotransformation under anaerobic condition. The drug concentrations were measured over 9 timepoints collected between 0 and 24 hours of incubation by liquid-chromatography-coupled mass spectrometry (LC–MS); details: 2 µM
[8] = The drug is tested on Z-001 corresponding to mouse gut metagenome with ENA study accession number: PRJEB37062 and ENA sample accession number: ERS12561801 for biotransformation under anaerobic condition. The drug concentrations were measured over 9 timepoints collected between 0 and 24 hours of incubation by liquid-chromatography-coupled mass spectrometry (LC–MS); details: 2 µM
[9] = The drug is tested on WLS-240 corresponding to human gut metagenome with ENA study accession number: PRJEB37062 and ENA sample accession number: ERS12561773 for biotransformation under anaerobic condition. The drug concentrations were measured over 9 timepoints collected between 0 and 24 hours of incubation by liquid-chromatography-coupled mass spectrometry (LC–MS); details: 2 µM
[10] = The drug is tested on WLS-170 corresponding to human gut metagenome with ENA study accession number: PRJEB37062 and ENA sample accession number: ERS12561762 for biotransformation under anaerobic condition. The drug concentrations were measured over 9 timepoints collected between 0 and 24 hours of incubation by liquid-chromatography-coupled mass spectrometry (LC–MS); details: 2 µM
[11] = The drug is tested on WLS-069 corresponding to human gut metagenome with ENA study accession number: PRJEB37062 and ENA sample accession number: ERS12561748 for biotransformation under anaerobic condition. The drug concentrations were measured over 9 timepoints collected between 0 and 24 hours of incubation by liquid-chromatography-coupled mass spectrometry (LC–MS); details: 2 µM
[12] = The drug is tested on WLS-039 corresponding to human gut metagenome with ENA study accession number: PRJEB37062 and ENA sample accession number: ERS12561746 for biotransformation under anaerobic condition. The drug concentrations were measured over 9 timepoints collected between 0 and 24 hours of incubation by liquid-chromatography-coupled mass spectrometry (LC–MS); details: 2 µM
[13] = The drug is tested on WLS-007 corresponding to human gut metagenome with ENA study accession number: PRJEB37062 and ENA sample accession number: ERS12561742 for biotransformation under anaerobic condition. The drug concentrations were measured over 9 timepoints collected between 0 and 24 hours of incubation by liquid-chromatography-coupled mass spectrometry (LC–MS); details: 2 µM
[14] = human gut metagenome, 24 h, 2 µM
[15] = human gut metagenome, 24 h, 2 µM; remark: listed apart in the source
[16] = human gut metagenome, 24 h, 2 µM; remark: listed apart in the source
[17] = human gut metagenome, 24 h, 2 µM; remark: listed apart in the source
[18] = human gut metagenome, 24 h, 2 µM; remark: listed apart in the source
[19] = human gut metagenome, 24 h, 2 µM; remark: listed apart in the source
[20] = human gut metagenome, 24 h, 2 µM; remark: listed apart in the source
Also: call rule not given here.

Row | Bacterial Biotransformation [1] | Bacterial Biotransformation [2] | Bacterial Biotransformation [3] | Bacterial Biotransformation [4] | Bacterial Biotransformation [5] | Bacterial Biotransformation [6] | Bacterial Biotransformation [7] | Bacterial Biotransformation [8] | Bacterial Biotransformation [9] | Bacterial Biotransformation [10] | Bacterial Biotransformation [11] | Bacterial Biotransformation [12] | Bacterial Biotransformation [13] | Bacterial Biotransformation [14] | Bacterial Biotransformation [15] | Bacterial Biotransformation [16] | Bacterial Biotransformation [17] | Bacterial Biotransformation [18] | Bacterial Biotransformation [19] | Bacterial Biotransformation [20] | SMILES
1 | Compound NOT metabolized | Compound NOT metabolized | Compound NOT metabolized | Compound NOT metabolized | Compound NOT metabolized | Compound NOT metabolized | Compound NOT metabolized | Compound NOT metabolized | Compound NOT metabolized | Compound NOT metabolized | Compound NOT metabolized | Compound NOT metabolized | Compound NOT metabolized | Compound NOT metabolized | Compound NOT metabolized | Compound NOT metabolized | Compound NOT metabolized | Compound NOT metabolized | Compound NOT metabolized | Compound NOT metabolized | N=C(N)NC(=O)Cc1c(Cl)cccc1Cl [GUANFACINE]
2 | Compound NOT metabolized | Compound NOT metabolized | Compound NOT metabolized | Compound NOT metabolized | Compound NOT metabolized | Compound NOT metabolized | Compound NOT metabolized | Compound NOT metabolized | Compound NOT metabolized | Compound NOT metabolized | Compound NOT metabolized | Compound NOT metabolized | Compound NOT metabolized | Compound NOT metabolized | Compound NOT metabolized | Compound NOT metabolized | Compound NOT metabolized | Compound NOT metabolized | Compound NOT metabolized | Compound NOT metabolized | Nc1nc(N)nc(-c2cc(Cl)ccc2Cl)n1.O=C(O)/C=C\C(=O)O [IRSOGLADINE MALEATE]
3 | Compound NOT metabolized | Compound NOT metabolized | Compound NOT metabolized | Compound NOT metabolized | Compound NOT metabolized | Compound NOT metabolized | Compound NOT metabolized | Compound NOT metabolized | Compound metabolized | Compound metabolized | Compound NOT metabolized | Compound NOT metabolized | Compound metabolized | Compound NOT metabolized | Compound NOT metabolized | Compound NOT metabolized | Compound metabolized | Compound NOT metabolized | Compound NOT metabolized | Compound NOT metabolized | CN1CCC(=C2c3ccccc3CC(=O)c3sccc32)CC1.O=C(O)/C=C/C(=O)O [KETOTIFEN FUMARATE]
4 | Compound NOT metabolized | Compound NOT metabolized | Compound NOT metabolized | Compound NOT metabolized | Compound NOT metabolized | Compound NOT metabolized | Compound NOT metabolized | Compound NOT metabolized | Compound metabolized | Compound metabolized | Compound metabolized | Compound metabolized | Compound NOT metabolized | Compound metabolized | Compound NOT metabolized | Compound NOT metabolized | Compound metabolized | Compound NOT metabolized | Compound metabolized | Compound metabolized | CC[C@H](C)C(=O)O[C@H]1CCC=C2C=C[C@H](C)[C@H](CC[C@@H]3C[C@@H](O)CC(=O)O3)[C@H]21 [MEVASTATIN]
5 | Compound NOT metabolized | Compound NOT metabolized | Compound NOT metabolized | Compound NOT metabolized | Compound NOT metabolized | Compound NOT metabolized | Compound NOT metabolized | Compound NOT metabolized | Compound metabolized | Compound metabolized | Compound metabolized | Compound metabolized | Compound NOT metabolized | Compound NOT metabolized | Compound metabolized | Compound NOT metabolized | Compound NOT metabolized | Compound metabolized | Compound metabolized | Compound NOT metabolized | COc1ccc2cc([C@H](C)C(=O)O)ccc2c1 [NAPROXEN]

Source: ChEMBL document CHEMBL5724914, “Linking interpersonal differences in gut microbiota composition and drug biotransformation activity” (2024)
